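48-hour exposure; five concentrations; linearly interpolated endpoints. GI50: concentration for 50% inhibition of growth. TGI denotes the concentration required for complete inhibition of growth.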
Assays:
Assay in all cases: growth of human tumour cells (NCI), 48 h
A498 renal = test system: A498 renal
CAKI-1 renal = test system: CAKI-1 renal
DU-145 prostate = test system: DU-145 prostate
HS 578T breast = test system: HS 578T breast
KM12 colon = test system: KM12 colon
NCI-H460 lung = test system: NCI-H460 lung
NCI/ADR-RES ovarian = test system: NCI/ADR-RES ovarian
OVCAR-5 ovarian = test system: OVCAR-5 ovarian
RXF 393 renal = test system: RXF 393 renal
SK-MEL-2 melanoma = test system: SK-MEL-2 melanoma
SK-MEL-28 melanoma = test system: SK-MEL-28 melanoma
SNB-75 CNS = test system: SNB-75 CNS
SW-620 colon = test system: SW-620 colon
UACC-62 melanoma = test system: UACC-62 melanoma
UO-31 renal = test system: UO-31 renal
786-0 renal = test system: 786-0 renal
A549 NSCLC = test system: A549 NSCLC
ACHN renal = test system: ACHN renal
COLO 205 colon = test system: COLO 205 colon
EKVX NSCLC = test system: EKVX NSCLC
HCC-2998 colon = test system: HCC-2998 colon
HCT-116 colon = test system: HCT-116 colon
HCT-15 colon = test system: HCT-15 colon
HL-60(TB) leukemia = test system: HL-60(TB) leukemia
HOP-62 NSCLC = test system: HOP-62 NSCLC
HOP-92 NSCLC = test system: HOP-92 NSCLC
IGROV1 ovarian = test system: IGROV1 ovarian
K-562 leukemia = test system: K-562 leukemia
M14 melanoma = test system: M14 melanoma
MCF7 breast = test system: MCF7 breast
MDA-MB-231 breast = test system: MDA-MB-231 breast
MDA-MB-435 = test system: MDA-MB-435
MOLT-4 leukemia = test system: MOLT-4 leukemia
NCI-H23 lung = test system: NCI-H23 lung
NCI-H522 lung = test system: NCI-H522 lung
OVCAR-3 ovarian = test system: OVCAR-3 ovarian
OVCAR-4 ovarian = test system: OVCAR-4 ovarian
OVCAR-8 ovarian = test system: OVCAR-8 ovarian
PC-3 prostate = test system: PC-3 prostate
RPMI-8226 leukemia = test system: RPMI-8226 leukemia
SF-268 CNS = test system: SF-268 CNS
SF-295 CNS = test system: SF-295 CNS
SF-539 CNS = test system: SF-539 CNS
SK-MEL-5 melanoma = test system: SK-MEL-5 melanoma
SK-OV-3 ovarian = test system: SK-OV-3 ovarian
SN12C renal = test system: SN12C renal
SNB-19 CNS = test system: SNB-19 CNS
SR leukemia = test system: SR leukemia
T-47D breast = test system: T-47D breast
TK-10 renal = test system: TK-10 renal
U251 CNS = test system: U251 CNS
UACC-257 melanoma = test system: UACC-257 melanoma

Cc1ccc(S(=O)(=O)OC[C@@]2(C)CC[C@]3(C)CC[C@]4(C)C(=CC[C@@H]5[C@@]6(C)CCCNC(C)(C)[C@@H]6CC[C@]54C)[C@@H]3C2)cc1
GI50 (A498 renal): 1660 nM
TGI (A498 renal): 3160 nM
GI50 (CAKI-1 renal): 1600 nM
TGI (CAKI-1 renal): 2940 nM
GI50 (DU-145 prostate): 1680 nM
TGI (DU-145 prostate): 3130 nM
GI50 (HS 578T breast): 1860 nM
TGI (HS 578T breast): 4000 nM
GI50 (KM12 colon): 1820 nM
TGI (KM12 colon): 3430 nM
GI50 (NCI-H460 lung): 1360 nM
TGI (NCI-H460 lung): 2850 nM
GI50 (NCI/ADR-RES ovarian): 2020 nM
TGI (NCI/ADR-RES ovarian): 4870 nM
GI50 (OVCAR-5 ovarian): 1740 nM
TGI (OVCAR-5 ovarian): 3200 nM
GI50 (RXF 393 renal): 1630 nM
TGI (RXF 393 renal): 3330 nM
GI50 (SK-MEL-2 melanoma): 1820 nM
TGI (SK-MEL-2 melanoma): 3340 nM
GI50 (SK-MEL-28 melanoma): 1750 nM
TGI (SK-MEL-28 melanoma): 3210 nM
GI50 (SNB-75 CNS): 1590 nM
TGI (SNB-75 CNS): 3100 nM
GI50 (SW-620 colon): 1320 nM
TGI (SW-620 colon): 2820 nM
GI50 (UACC-62 melanoma): 1830 nM
TGI (UACC-62 melanoma): 3320 nM
GI50 (UO-31 renal): 1390 nM
TGI (UO-31 renal): 2870 nM

c1ccc2c3c(ccc2c1)-c1c(ccc2c(NCCCCN4CCCCC4)cccc12)C3
GI50 (786-0 renal): 1760 nM
TGI (786-0 renal): 3140 nM
GI50 (A549 NSCLC): 1470 nM
TGI (A549 NSCLC): 2790 nM
GI50 (ACHN renal): 1610 nM
TGI (ACHN renal): 2990 nM
GI50 (COLO 205 colon): 2330 nM
TGI (COLO 205 colon): 6770 nM
GI50 (DU-145 prostate): 1770 nM
TGI (DU-145 prostate): 3330 nM
GI50 (EKVX NSCLC): 10700 nM
TGI (EKVX NSCLC): 28000 nM
GI50 (HCC-2998 colon): 1630 nM
TGI (HCC-2998 colon): 3490 nM
GI50 (HCT-116 colon): 1630 nM
TGI (HCT-116 colon): 2980 nM
GI50 (HCT-15 colon): 1860 nM
TGI (HCT-15 colon): 3790 nM
GI50 (HL-60(TB) leukemia): 2480 nM
TGI (HL-60(TB) leukemia): 14600 nM
GI50 (HOP-62 NSCLC): 1570 nM
TGI (HOP-62 NSCLC): 2910 nM
GI50 (HOP-92 NSCLC): 2460 nM
TGI (HOP-92 NSCLC): 7730 nM
GI50 (IGROV1 ovarian): 2090 nM
TGI (IGROV1 ovarian): 8030 nM
GI50 (K-562 leukemia): 1670 nM
TGI (K-562 leukemia): 5850 nM
GI50 (KM12 colon): 1510 nM
TGI (KM12 colon): 3000 nM
GI50 (M14 melanoma): 1940 nM
TGI (M14 melanoma): 3350 nM
GI50 (MCF7 breast): 10800 nM
TGI (MCF7 breast): 30300 nM
GI50 (MDA-MB-231 breast): 599 nM
TGI (MDA-MB-231 breast): 2210 nM
GI50 (MDA-MB-435): 1910 nM
TGI (MDA-MB-435): 3310 nM
GI50 (MOLT-4 leukemia): 2090 nM
TGI (MOLT-4 leukemia): > 100000 nM
GI50 (NCI-H23 lung): 1700 nM
TGI (NCI-H23 lung): 3160 nM
GI50 (NCI-H460 lung): 2080 nM
TGI (NCI-H460 lung): 6740 nM
GI50 (NCI-H522 lung): 3420 nM
TGI (NCI-H522 lung): 9220 nM
GI50 (NCI/ADR-RES ovarian): 1610 nM
TGI (NCI/ADR-RES ovarian): 2960 nM
GI50 (OVCAR-3 ovarian): 1210 nM
TGI (OVCAR-3 ovarian): 2520 nM
GI50 (OVCAR-4 ovarian): 2810 nM
TGI (OVCAR-4 ovarian): > 31000 nM
GI50 (OVCAR-5 ovarian): 1310 nM
TGI (OVCAR-5 ovarian): 2880 nM
GI50 (OVCAR-8 ovarian): 2190 nM
TGI (OVCAR-8 ovarian): 5610 nM
GI50 (PC-3 prostate): 1610 nM
TGI (PC-3 prostate): 3230 nM
GI50 (RPMI-8226 leukemia): 1640 nM
TGI (RPMI-8226 leukemia): 3600 nM
GI50 (SF-268 CNS): 1070 nM
TGI (SF-268 CNS): 2250 nM
GI50 (SF-295 CNS): 1780 nM
TGI (SF-295 CNS): 3350 nM
GI50 (SF-539 CNS): 1790 nM
TGI (SF-539 CNS): 3440 nM
GI50 (SK-MEL-2 melanoma): 2920 nM
TGI (SK-MEL-2 melanoma): 6420 nM
GI50 (SK-MEL-28 melanoma): 1880 nM
TGI (SK-MEL-28 melanoma): 4060 nM
GI50 (SK-MEL-5 melanoma): 11000 nM
TGI (SK-MEL-5 melanoma): 26700 nM
GI50 (SK-OV-3 ovarian): 10000 nM
TGI (SK-OV-3 ovarian): 35300 nM
GI50 (SN12C renal): 1620 nM
TGI (SN12C renal): 3050 nM
GI50 (SNB-19 CNS): 22200 nM
TGI (SNB-19 CNS): 63500 nM
GI50 (SR leukemia): 1370 nM
TGI (SR leukemia): 5400 nM
GI50 (T-47D breast): 4270 nM
TGI (T-47D breast): > 100000 nM
GI50 (TK-10 renal): 2240 nM
TGI (TK-10 renal): 4570 nM
GI50 (U251 CNS): 1770 nM
TGI (U251 CNS): 3160 nM
GI50 (UACC-257 melanoma): 1890 nM
TGI (UACC-257 melanoma): 4920 nM
GI50 (UACC-62 melanoma): 1790 nM
TGI (UACC-62 melanoma): 3240 nM
GI50 (UO-31 renal): 2610 nM
TGI (UO-31 renal): 7660 nM

From PubChem BioAssay (NCI)
